# Patent publication US8334312B2, “Fungicidal mixtures for wood preservation” (LANXESS Deutschland GmbH, priority 2005, dated 2012)
# What was measured:
# Experiment in all cases: Mycelium radial growth inhibition on malt extract/peptone agar (MIC) and Kull synergism
# Assay type in all cases: cell-based
# [1] = test system: Coniophora puteana; settings: 26° C. agar
# Description: (§1) Mycelium pieces were punched out of colonies of the wood-destroying organisms Coriolus versicolor, Poria placenta, Gloeophyllum trabeum and Cornophora puteana and incubated at 26° C. on a malt extract/peptone-containing nutrient agar. Here, the growth of the fungal threads with and without added active compound was compared. The stated minimum inhibitory concentration (MIC) is the active compound concentration at which the radial growth of the fungal threads is suppressed completely. Using the method described by Kull et al. (F. C. Kull, […]. Mayer, Applied Microbiology 9, 538 to 541, 1961), the synergism was determined. Here, the following relations apply: […]
# [2] = test system: Coriolus versicolor; settings: for Qb = concentration of substance B which is the MIC: b = triadimefon alone; for Qa = concentration of substance A which is the MIC: 26° C. agar
# Description: as §1
# [3] = test system: Gloeophyllum trabeum
# Description: as §1
# [4] = test system: Poria placenta; settings: 26° C. agar
# Description: as §1
smiles,measurement,setting,value
"CC(C)(C)C(=O)C(Oc1ccc(Cl)cc1)n1cncn1 (racemic) [triadimefon, (±)-1-(4-chlorophenoxy)-3,3-dimethyl-1-(1H-1,2,4-triazol-1-yl)butan-2-one]",Qb = concentration of substance B which is the MIC,[1]; b = triadimefon alone,30
same,Qb = concentration of substance B which is the MIC,[2]; 26° C. agar (Example 2),6
same,Qb = concentration of substance B which is the MIC,[2]; 26° C. agar (Example 3),3
same,Qb = concentration of substance B which is the MIC,"[3]; b = triadimefon alone, 26° C. agar",30
same,Qb = concentration of substance B which is the MIC,[4]; b = triadimefon alone,3
"CC(C)(C)C(O)C(Oc1ccc(Cl)cc1)n1cncn1 (racemic) [triadimenol, (±)-1-(4-chlorophenoxy)-3,3-dimethyl-1-(1H-1,2,4-triazol-1-yl) butan-2-ole]",Qa = concentration of substance A which is the MIC,"[3]; a = triadimenol alone, 26° C. agar",1
same,Qa = concentration of substance A which is the MIC,[4]; a = triadimenol alone,1
CC(C)(C)C(O)(CCc1ccc(Cl)cc1)Cn1cncn1 (centres unmarked) [tebuconazole],Qa = concentration of substance A which is the MIC,[1]; a = tebuconazole alone,6
same,Qa = concentration of substance A which is the MIC,[2]; a = tebuconazole alone,0.3
same,Qa = concentration of substance A which is the MIC,"[3]; a = tebuconazole alone, 26° C. agar (Example 3)",0.5
same,Qb = concentration of substance B which is the MIC,"[3]; b = tebuconazole alone, 26° C. agar (Example 1)",0.7
same,Qb = concentration of substance B which is the MIC,[4]; b = tebuconazole alone,1
CCCC1COC(Cn2cncn2)(c2ccc(Cl)cc2Cl)O1 (centres unmarked) [propiconazole],Qa = concentration of substance A which is the MIC,[2]; a = propiconazole alone,3
same,Qa = concentration of substance A which is the MIC,[4]; a = propiconazole alone,1
